Where two headings read alike, the source gives them in different places.
Experiments:
PDE4D3 = PDE4D3 (Homo sapiens, UniProt Q08499); test: Inhibition assay of PDE4D3 enzyme (TR-FRET kit); assay type: biochemical
Experimental: 2. Inhibition assay of PDE4D3 enzyme:
(§1) Materials and Instruments:
FAM substrate: A stock solution of 20 μM FAM substrate was diluted to 200 nM with PDE assay buffer. 12.5 μL of the diluted substrate was added to each reaction well.
(§2) 5 μL of the compound stock solution was added to 45 μL of DMSO to prepare a 1 mM diluent. 5 μL of the 1 mM diluent was added to 45 μL of PDE assay buffer to prepare a gradient dilution starting point. Then, according to the method of adding 5 μL of the previous concentration solution to 15 μL of PDE assay buffer, gradient dilution was carried out for 9 times to prepare compound working solutions with 10 concentrations. The working solutions were added to compound wells at 2.5 μL/well.
PDE4D3: 0.054 μL of a PDE4D3 recombinase stock solution was added to 1500 μL of PDE buffer, and the mixture was added to all compound wells and positive control wells at 10 μL/well. 10 μL of PDE assay buffer was added to substrate control wells.
Binding solution: 3750 μL of binding buffer A and 3750 μL of binding buffer B were mixed well. Then, 150 μL of a binder was added into the mixture and mixed well. 7.5 μL of a Tb donor was added and mixed well. The obtained mixture was added to all wells at 50 μL/well.
S520=Read value of sample 520 nm
S490=Read value of sample 490 nm
Tb520=Read value of Tb only 520 nm
Tb490=Read value of Tb only 490 nm
FRETp=Positive control FRET
FRETsub=Substrate control FRET.

PDE4A1 = biological target: T1, PDE4A1 (Homo sapiens, UniProt P27815); test: Inhibition assay of PDE4A1 enzyme (FP kit); assay type: biochemical
T1 construct: purchased BPS 60340
Experimental: 3. Inhibition assay of PDE4A1 enzyme:
as §1
(§3) FAM substrate: 25 μL of a FAM substrate stock solution was added into 2500 μL of PDE assay buffer. 25 μL of the diluted substrate was added to each reaction well.
as §2, with “5” for “2.5”
(§4) PDE4A1: First, a PDE4A1 stock solution was diluted by 100 times to a concentration of 4.9 ng/μL, 1.8 μL of the diluent was added to 2200 μL of PDE assay buffer, and the mixture was added to all compound wells and positive control wells at 20 μL/well. 20 μL of PDE assay buffer was added to substrate control wells.
Binding solution: 95 μL of binding buffer was added into 9.5 mL of binder diluent, and then mixed well. The obtained mixture was added to all wells at 100 μL/well.
(§5) FPsub=Substrate control FP.

PDE4B2 = biological target: T2, PDE4B2 (Homo sapiens, UniProt Q07343); test: Inhibition assay of PDE4B2 enzyme (FP kit); assay type: biochemical
T2 construct: purchased BPS 60343
Experimental: 4. Inhibition assay of PDE4B2 enzyme:
as §1, §3
as §2, with “5” for “2.5”
as §4, with “PDE4B2:” for “PDE4A1:”, “PDE4B2” for “PDE4A1”, “5.2” for “4.9”, “3.2” for “1.8”
Binding solution: 95 μL of binder was added into 9.5 mL of binder diluent, and then mixed well. The obtained mixture was added to all wells at 100 μL/well.
as §5

PDE4C1 = biological target: T3, PDE4C1 (Homo sapiens, UniProt Q08493); test: Inhibition assay of PDE4C1 enzyme (FP kit); assay type: biochemical
T3 construct: purchased BPS 60384
Experimental: 5. Inhibition assay of PDE4C1 enzyme:
as §1
FAM substrate: 12.5 μL of a FAM substrate stock solution was added into 1250 μL of PDE assay buffer. 12.5 μL of the diluted substrate was added to each reaction well.
as §2
as §4, with “PDE4C1:” for “PDE4A1:”, “PDE4C1” for “PDE4A1”, “3.2” for “4.9”, “13.75” for “1.8”, “1100” for “2200”, “10” for “20”
Binding solution: 50 μL of binder was added into 5 mL of binder diluent, and then mixed well. The obtained mixture was added to all wells at 50 μL/well.
as §5

PDE1C = PDE1C (Homo sapiens, UniProt Q14123); test: Selective inhibitory activity assay, PDE1C; assay type: biochemical; conditions: read-out: Inhibition rate (%) of PDE1C
Experimental: (§6) 7. Selective inhibitory activity assay for PDE1, 2, 3, 5, 7, 10 and 11 enzymes
(§7) The selective specificity of compounds for PDE4 was assessed by assaying single concentrations of the compounds. For example, PDE1a enzyme, PDElc enzyme, PDE2a enzyme, PDE3a enzyme, PDE3b enzyme, PDE5a1 enzyme, PDE7a enzyme, PDE7b enzyme, PDE10a1 enzyme and PDE11a4 enzyme were tested. The selective inhibitory effects of different compounds on the enzymatic activities of PDEIC, PDE2A, PDE3B, PDE5A1, PDE7A, and PDE10A1 at concentrations of 10 μM and 1 μM, respectively, are shown in the table below: […]

PDE2A = PDE2A (Homo sapiens, UniProt O00408); test: Selective inhibitory activity assay, PDE2A; assay type: biochemical; conditions: read-out: Inhibition rate (%) of PDE2A
Experimental: as §6, §7

PDE3B = PDE3B (Homo sapiens, UniProt Q13370); test: Selective inhibitory activity assay, PDE3B; assay type: biochemical; conditions: read-out: Inhibition rate (%) of PDE3B
Experimental: as §6, §7

PDE5A1 = PDE5A1 (Homo sapiens, UniProt O76074); test: Selective inhibitory activity assay, PDE5A1; assay type: biochemical; conditions: read-out: Inhibition rate (%) of PDE5A1
Experimental: as §6, §7

PDE7A = PDE7A (Homo sapiens, UniProt Q13946); test: Selective inhibitory activity assay, PDE7A; assay type: biochemical; conditions: read-out: Inhibition rate (%) of PDE7A
Experimental: as §6, §7

PDE10A1 = PDE10A1 (Homo sapiens, UniProt Q9Y233); test: Selective inhibitory activity assay, PDE10A1; assay type: biochemical; conditions: read-out: Inhibition rate (%) of PDE10A1
Experimental: as §6, §7

TNF-α = test: Inhibition of TNF-α induced in human peripheral blood mononuclear cells; assay type: cell-based; conditions: read-out: IC50 (nM), cytokine TNF-α
IL-2 = test: Inhibition of IL-2 induced in human peripheral blood mononuclear cells; assay type: cell-based; conditions: human PBMC, stimulus SEB; read-out: IC50 (nM), cytokine IL-2
Experimental: 8. Inhibitory assay of inflammatory factors TNF-α, IL-2, INF-γ
Determination of TNF-α, IL-2 and INF-γ induced by LPS/SEB in human peripheral blood mononuclear cells:
1. The purchased PBMC frozen cells were thawed at 37° C., transferred to RMPI1640 medium, and incubated overnight at 37° C. in an incubator containing 5% of CO2.
2. The next day, the cells were planked at 2×10^5 cells/well, with 100 μL per well.
4. LPS stimulus was added to each well at a final concentration of 10 ng/ml.
5. Incubation was carried out overnight at […] in an incubator containing 5% of CO2.
6. On the third day, the cell culture supernatant was collected, and cytokine assay was performed using an MSD method.

INF-γ = test: Inhibition of INF-γ induced in human peripheral blood mononuclear cells; assay type: cell-based
[1] = Homo sapiens, PBMC, read-out: IC50 (nM), cytokine INF-r, human PBMC, stimulus SEB
[2] = human PBMC, stimulus LPS, read-out: IC50 (nM), cytokine INF-r

PDE1C, sequence (Q14123 whole entry, species assumed): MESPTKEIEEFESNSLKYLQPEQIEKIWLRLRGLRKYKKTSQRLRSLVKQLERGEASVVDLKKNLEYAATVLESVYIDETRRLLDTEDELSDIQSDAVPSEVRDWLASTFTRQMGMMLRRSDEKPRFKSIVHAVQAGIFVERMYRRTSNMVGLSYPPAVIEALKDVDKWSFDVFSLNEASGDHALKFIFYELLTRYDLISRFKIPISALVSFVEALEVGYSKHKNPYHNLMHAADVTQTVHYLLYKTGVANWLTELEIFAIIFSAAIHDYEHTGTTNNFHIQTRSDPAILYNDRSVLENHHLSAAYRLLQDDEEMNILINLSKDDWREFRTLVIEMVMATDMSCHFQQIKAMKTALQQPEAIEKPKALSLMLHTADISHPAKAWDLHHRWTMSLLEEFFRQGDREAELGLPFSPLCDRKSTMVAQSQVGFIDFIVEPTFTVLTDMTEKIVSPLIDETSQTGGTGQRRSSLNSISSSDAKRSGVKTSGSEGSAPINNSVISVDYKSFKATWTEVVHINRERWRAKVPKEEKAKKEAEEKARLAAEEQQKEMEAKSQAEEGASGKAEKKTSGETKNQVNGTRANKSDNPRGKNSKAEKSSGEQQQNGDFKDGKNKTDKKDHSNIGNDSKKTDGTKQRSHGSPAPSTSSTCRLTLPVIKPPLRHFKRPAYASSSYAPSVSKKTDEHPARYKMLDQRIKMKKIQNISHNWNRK
PDE2A, sequence (O00408 whole entry, species assumed): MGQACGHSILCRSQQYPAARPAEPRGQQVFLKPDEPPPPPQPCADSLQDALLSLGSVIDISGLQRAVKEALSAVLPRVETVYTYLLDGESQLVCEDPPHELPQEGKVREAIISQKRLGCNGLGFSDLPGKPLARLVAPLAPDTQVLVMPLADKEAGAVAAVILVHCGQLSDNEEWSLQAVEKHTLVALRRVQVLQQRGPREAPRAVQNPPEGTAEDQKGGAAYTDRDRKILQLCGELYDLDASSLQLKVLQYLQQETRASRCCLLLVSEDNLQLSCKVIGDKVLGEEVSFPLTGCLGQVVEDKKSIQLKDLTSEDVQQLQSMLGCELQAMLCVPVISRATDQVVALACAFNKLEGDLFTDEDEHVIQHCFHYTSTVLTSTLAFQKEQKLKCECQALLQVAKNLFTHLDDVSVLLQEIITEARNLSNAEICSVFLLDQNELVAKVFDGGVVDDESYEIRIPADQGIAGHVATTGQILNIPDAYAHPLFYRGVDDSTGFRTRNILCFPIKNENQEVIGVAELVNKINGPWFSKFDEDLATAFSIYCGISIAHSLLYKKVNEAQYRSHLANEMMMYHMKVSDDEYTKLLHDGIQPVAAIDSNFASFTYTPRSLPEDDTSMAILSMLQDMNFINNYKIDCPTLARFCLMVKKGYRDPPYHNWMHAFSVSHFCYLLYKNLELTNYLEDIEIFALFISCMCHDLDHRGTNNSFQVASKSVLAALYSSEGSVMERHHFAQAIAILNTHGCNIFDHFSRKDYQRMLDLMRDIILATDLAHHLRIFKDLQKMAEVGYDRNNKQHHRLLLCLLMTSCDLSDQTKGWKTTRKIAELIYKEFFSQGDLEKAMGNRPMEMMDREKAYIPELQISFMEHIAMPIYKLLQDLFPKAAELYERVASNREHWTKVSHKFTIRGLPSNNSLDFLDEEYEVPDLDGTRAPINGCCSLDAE
PDE3B, sequence (Q13370 whole entry, species assumed): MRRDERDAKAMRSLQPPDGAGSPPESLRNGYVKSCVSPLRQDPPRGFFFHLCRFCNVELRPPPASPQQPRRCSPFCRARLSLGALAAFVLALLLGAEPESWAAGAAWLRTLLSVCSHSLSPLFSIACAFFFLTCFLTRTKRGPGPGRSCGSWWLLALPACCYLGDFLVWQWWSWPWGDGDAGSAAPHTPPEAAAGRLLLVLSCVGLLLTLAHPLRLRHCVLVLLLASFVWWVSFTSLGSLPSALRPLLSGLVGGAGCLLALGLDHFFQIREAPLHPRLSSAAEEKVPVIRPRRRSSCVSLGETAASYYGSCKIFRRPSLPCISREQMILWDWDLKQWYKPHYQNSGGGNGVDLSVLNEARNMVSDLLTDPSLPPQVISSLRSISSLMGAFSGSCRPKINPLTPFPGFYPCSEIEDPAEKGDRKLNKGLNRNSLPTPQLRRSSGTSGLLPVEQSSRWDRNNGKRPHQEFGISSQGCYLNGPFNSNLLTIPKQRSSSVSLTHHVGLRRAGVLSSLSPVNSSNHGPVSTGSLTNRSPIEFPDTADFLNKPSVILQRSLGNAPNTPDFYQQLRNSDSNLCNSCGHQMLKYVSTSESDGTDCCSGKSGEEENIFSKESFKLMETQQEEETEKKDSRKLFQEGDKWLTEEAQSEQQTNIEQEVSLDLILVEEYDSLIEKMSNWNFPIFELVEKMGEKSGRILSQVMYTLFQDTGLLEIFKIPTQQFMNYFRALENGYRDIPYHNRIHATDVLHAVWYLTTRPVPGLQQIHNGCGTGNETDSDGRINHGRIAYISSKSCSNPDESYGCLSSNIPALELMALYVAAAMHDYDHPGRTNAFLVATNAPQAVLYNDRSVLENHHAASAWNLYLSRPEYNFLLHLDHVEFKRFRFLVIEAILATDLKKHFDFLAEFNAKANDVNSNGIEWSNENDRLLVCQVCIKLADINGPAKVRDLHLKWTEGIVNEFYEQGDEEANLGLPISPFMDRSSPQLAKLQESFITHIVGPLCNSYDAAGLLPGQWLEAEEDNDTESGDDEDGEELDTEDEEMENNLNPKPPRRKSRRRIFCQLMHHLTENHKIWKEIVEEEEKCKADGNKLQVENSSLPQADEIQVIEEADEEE
PDE10A1, sequence (Q9Y233 1-779 isoform Q9Y233-1, species assumed): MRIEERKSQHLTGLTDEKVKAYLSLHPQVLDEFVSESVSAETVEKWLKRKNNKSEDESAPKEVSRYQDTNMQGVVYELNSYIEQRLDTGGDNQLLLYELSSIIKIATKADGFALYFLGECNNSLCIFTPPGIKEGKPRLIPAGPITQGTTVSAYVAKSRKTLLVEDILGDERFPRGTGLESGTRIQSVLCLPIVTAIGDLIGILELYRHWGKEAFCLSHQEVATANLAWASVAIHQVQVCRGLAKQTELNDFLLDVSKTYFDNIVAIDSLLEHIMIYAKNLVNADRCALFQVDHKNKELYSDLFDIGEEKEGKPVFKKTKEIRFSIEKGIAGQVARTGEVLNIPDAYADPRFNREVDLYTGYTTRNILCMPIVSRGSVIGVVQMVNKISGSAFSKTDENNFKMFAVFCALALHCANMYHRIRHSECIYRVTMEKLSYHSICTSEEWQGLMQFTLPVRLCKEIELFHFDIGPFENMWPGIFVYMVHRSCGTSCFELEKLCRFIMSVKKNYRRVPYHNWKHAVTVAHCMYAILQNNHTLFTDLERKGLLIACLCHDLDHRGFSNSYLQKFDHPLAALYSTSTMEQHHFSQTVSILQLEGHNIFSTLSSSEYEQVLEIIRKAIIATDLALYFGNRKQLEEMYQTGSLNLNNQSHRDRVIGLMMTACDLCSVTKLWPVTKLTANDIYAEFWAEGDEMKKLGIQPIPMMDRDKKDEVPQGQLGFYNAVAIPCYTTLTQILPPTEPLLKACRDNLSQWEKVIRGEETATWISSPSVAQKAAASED
PDE7A, sequence (Q13946 whole entry, species assumed): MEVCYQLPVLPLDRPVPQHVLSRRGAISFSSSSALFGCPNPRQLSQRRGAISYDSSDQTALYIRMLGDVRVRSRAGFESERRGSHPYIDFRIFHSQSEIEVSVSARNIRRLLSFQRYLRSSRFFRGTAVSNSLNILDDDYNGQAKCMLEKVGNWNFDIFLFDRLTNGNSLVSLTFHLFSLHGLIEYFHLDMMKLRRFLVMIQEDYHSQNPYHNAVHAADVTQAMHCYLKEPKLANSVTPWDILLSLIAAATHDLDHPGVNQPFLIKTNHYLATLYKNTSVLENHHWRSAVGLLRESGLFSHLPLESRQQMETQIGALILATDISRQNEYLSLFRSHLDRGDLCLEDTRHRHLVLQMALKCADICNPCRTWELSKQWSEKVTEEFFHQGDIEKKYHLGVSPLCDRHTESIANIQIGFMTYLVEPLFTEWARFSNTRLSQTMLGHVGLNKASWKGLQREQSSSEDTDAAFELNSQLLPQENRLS
T1 sequence (P27815 1-647 isoform P27815-4): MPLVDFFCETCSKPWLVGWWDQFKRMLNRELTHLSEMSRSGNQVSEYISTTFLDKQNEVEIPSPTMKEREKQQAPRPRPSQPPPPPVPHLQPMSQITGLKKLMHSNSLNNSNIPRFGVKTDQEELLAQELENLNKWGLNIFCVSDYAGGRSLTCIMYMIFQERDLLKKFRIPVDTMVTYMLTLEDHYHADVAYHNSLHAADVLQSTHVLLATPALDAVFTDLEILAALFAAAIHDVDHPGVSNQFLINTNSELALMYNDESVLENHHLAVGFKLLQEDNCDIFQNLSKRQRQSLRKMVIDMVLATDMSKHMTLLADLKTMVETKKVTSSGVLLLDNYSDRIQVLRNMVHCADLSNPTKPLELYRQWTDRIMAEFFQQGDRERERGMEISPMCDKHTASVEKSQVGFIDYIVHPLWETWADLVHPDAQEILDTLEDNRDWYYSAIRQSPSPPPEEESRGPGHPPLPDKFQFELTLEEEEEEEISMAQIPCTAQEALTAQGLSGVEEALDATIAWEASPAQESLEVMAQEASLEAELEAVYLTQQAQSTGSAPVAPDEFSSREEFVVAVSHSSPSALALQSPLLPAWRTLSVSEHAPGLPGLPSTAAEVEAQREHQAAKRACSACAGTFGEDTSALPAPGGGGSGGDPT

Structure (SMILES)	inhibition at 1 µM (PDE1C) [%]	inhibition at 10 µM (PDE1C) [%]	inhibition at 1 µM (PDE2A) [%]	inhibition at 10 µM (PDE2A) [%]	inhibition at 1 µM (PDE3B) [%]	inhibition at 10 µM (PDE3B) [%]	inhibition at 1 µM (PDE5A1) [%]	inhibition at 1 µM (PDE7A) [%]	inhibition at 10 µM (PDE7A) [%]	inhibition at 1 µM (PDE10A1) [%]	inhibition at 10 µM (PDE10A1) [%]	IC50 (TNF-α; human PBMC, stimulus LPS) [nM]	IC50 (IL-2) [nM]	IC50 (INF-γ; [1]) [nM]	IC50 (INF-γ; [2]) [nM]	other results
CCCCCc1ccc(NC(C)=O)c2c1C(=O)N([C@H](CS(C)(=O)=O)c1ccc(OC)c(OCC)c1)C2=O [Example 9, (S)-2-[1-(3-ethoxy-4-methoxyphenyl)-2-alkylsulfonylethyl]-4-acetamido-7-pentyl isoindoline-1,3-diketone]	0.49	30.6	5.83	12.2	5.44	0.81	1.99	20.8	44.5	0	10.1	0.82	0.44	1.82	0.43	IC50 (PDE4D3): < 5 nM; IC50 (PDE4A1): < 100 nM; IC50 (PDE4B2): < 100 nM; IC50 (PDE4C1): < 200 nM; inhibition at 10 µM (PDE5A1; 10 μM): 5.74%
CCOc1cc([C@@H](CS(C)(=O)=O)N2C(=O)c3cccc(NC(C)=O)c3C2=O)ccc1OC [Example 0, Apremilast, reference compound]	7.77	37.1	2.95	2.35	2.44	1.56	3.97	9.41	11.1	0	-2.75	–	110	77.8	–	IC50 (TNF-α; Homo sapiens, PBMC): 63.8 nM; IC50 (INF-γ; Homo sapiens, PBMC, read-out: IC50 (nM), cytokine INF-r, human PBMC, stimulus LPS): 15.4 nM
O=C(Nc1c(Cl)cncc1Cl)c1ccc(OC(F)F)c(OCC2CC2)c1 [Roflumilast]	–	–	–	–	–	–	–	–	–	–	–	2.83	14.7	10.9	1.4	–

Reference: patent publication US20240254082A1, “Substituted Isoindoline-1, 3-diketone PDE4 Inhibitor and Pharmaceutical Application Thereof” (SUZHOU INTRAGRAND PHARMA CO., LTD, priority 2021, published 2024)
